This is an account of results in patent publication US4181657A, “2-Aminooctahydroindolo[2,3-a]quinolizines useful in treating cardiovascular disorders” (Miles Laboratories, Inc., priority 1978, dated 1980).

Structures are written as SMILES. Structures can show the parent of a compound that is named as a salt.

As a reminder, the ED50 is the midpoint of the dose-response relation.

Type in all cases: in vivo
The subject of experiment [1] is ventricular arrhythmia produced by chloroform. The experiment is described as follows: Antiarrhythmic activity: protection from chloroform-induced ventricular arrhythmia in mice (Lawson model). As to conditions: mouse; for ED50: ip, 10 min, i.p., 10 min before chloroform, 95% confidence limits in parentheses, read-out: ED50 (95% C.L.); for mice protected of 5 / Antiarrhythmic activity, ED50 symbol (failed screening dose): 31 mg/kg i.p.; for Antiarrhythmic activity, ED50 symbol (failed screening dose): groups of 5 mice. The method, then:
The antiarrhythmic activity of the compounds of this invention was determined in the experimental model described by J. W. Lawson (J. Pharmacol. Exper. Therap. 160:22-31, 1968). Test compounds were administered to groups of 5 mice at an intraperitoneal dose of 31 mg/kg. Ten minutes after injection each mouse was placed in a covered 300 ml glass beaker which contained cotton saturated with chloroform. The animal was observed closely and removed from the beaker immediately after respiratory arrest. The heart was quickly exposed by making an incision through the abdomen, diaphragm, thorax and pericardium for visual inspection of ventricular rate and rhythm. Ventricular contractions were counted for 30 seconds and animals with a rate not exceeding 100 beats per 30 seconds were considered protected from the ventricular arrhythmia produced by chloroform. Compounds protecting at least 3 of the 5 mice were subsequently tested at various doses and the results obtained were used to calculate the mean effective doses (ED50) and 95% confidence limits after the method of Litchfield and Wilcoxon (J. Pharmacol. Exper. Therap. 96:99-113, 1949). Table A presents the results obtained in the antiarrhythmic study.

In a further experiment the test system is Systolic Blood Pressure. Nature of the experiment: Antihypertensive activity: indirect systolic blood pressure in renal hypertensive rats. The settings on record: rat, 31 mg/kg p.o., * in table = statistically significant change from control. Here is the method:
Rats were made hypertensive by applying a figure of eight ligature to one kidney and removing the contralateral kidney two weeks later. At least four weeks after the second operation the animals were subjected to indirect systolic blood pressure measurements with an occluding cuff and pulse sensor system applied to the tail. Pressure measurements were made before and 1,2,4,6 and 8 hours after oral administration of the test compounds at a dose of 31 mg/kg. Each compound was tested in 5 or 10 rats. Statistical significance of differences between control and post treatment values was determined by Wilcoxon's signed rank test (F. Wilcoxon and R. A. Wilcox, Some Rapid Approximate Statistical Procedures, Lederle Laboratories, Pearl River, 1964).

The test system of another experiment is dog heart in situ. The experiment is described as follows: Antianginal activity: aortic-coronary sinus difference in oxygen (myocardial oxygen consumption) in anesthetized dogs. The settings on record: 1 mg/kg i.v.; for antianginal activity (conclusion in words): based upon comparison with nitroglycerin, named compounds 'particularly'. The method, then:
Angina pectoris is a clinical condition of hypoxia that results from an imbalance in myocardial oxygen supply and demand. A drug reducing oxygen demand is useful in the treatment of angina pectoris, as has been the case with nitroglycerin and the beta-adrenergic blocking agents like propranolol (J. R. Paratt, Advan. Drug Res. 9:103-134, 1974). Accordingly,the antianginal activity of 2-substituted indoloquinolizines was evaluated by assessing their capacity to reduce oxygen consumption by the dog heart in situ. This method allows measurement of the difference in oxygen content of the arterial and venous blood.
Mongrel dogs were anesthetized with pentobarbital and cannulas inserted in the trachea and in a femoral vein for artificial respiration with room air and for injection of test compounds, respectively. Heparin was administered intravenously to prevent blood clotting. The chest was opened at the sternal midline and an additional cannula introduced in the coronary sinus. Samples of blood were obtained from the coronary sinus cannula and from the thoracic aorta by direct puncture of the vessel. Partial pressure of oxygen in the samples was determined with a blood gas analyzer. Test compounds were injected intravenously at a dose of 1 mg/kg; oxygen measurements were made before administration and at 1, 5, 10, 20, 30, 40, 50 and 60 min after administration. One animal was used per test compound. As the standard of comparison, nitroglycerin was administered to a test animal and measurements were made in a similar manner.
Differences between partial pressure values in arterial and venous blood samples were calculated for each measurement. Since coronary sinus blood is representative of the venous effluent from the heart, these differences reflect the consumption of oxygen by the myocardium. Thus, the decrease in arteriovenous oxygen difference produced by the compounds by this invention indicates a reduction in myocardial oxygen consumption.

Take `Brc1cccc(NC2CCN3CCc4c(n(Cc5ccccc5)c5ccccc45)C3C2)c1.Cl` (stereo not drawn) [TR3014, 12-benzyl-2-(3-bromoanilino)-1,2,3,4,6,7,12,12b-octahydroindolo[2,3-a]quinolizine hydrochloride]: in experiment [1], the ED50 amounted to 32 mg/kg and the “mice protected of 5” value was “at least 3 of 5 mice”. Further, in the experiment with Systolic Blood Pressure, the “Change in Systolic Blood Pressure at 1 hr” value (“Change … at 1 hr” below) was “+1 mmHg”, the “Change in Systolic Blood Pressure at 2 hr” value (from here on “Change … at 2 hr”) is recorded as -16 mmHg, the “Change in Systolic Blood Pressure at 4 hr” value (shortened to “Change … at 4 hr”) was -2 mmHg and the “Change in Systolic Blood Pressure at 6 hr” value (“Change … at 6 hr” below) worked out at 0 mmHg. Moreover, the “Change in Systolic Blood Pressure at 8 hr” value (from here on “Change … at 8 hr”) in the experiment with Systolic Blood Pressure is recorded as -3 mmHg. In the experiment on dog heart in situ, the “Arterio-Venous Difference in Oxygen Partial Pressure at 1 min” value (shortened to “Arterio-Venous Difference … at 1 min”) is 17 mmHg, the “Arterio-Venous Difference in Oxygen Partial Pressure at 5 min” value (from here on “Arterio-Venous Difference … at 5 min”) stood at 18 mmHg, the “Arterio-Venous Difference in Oxygen Partial Pressure at 10 min” value (“Arterio-Venous Difference … at 10 min” for short) came out at 26 mmHg and the “Arterio-Venous Difference in Oxygen Partial Pressure at 20 min” value (from here on “Arterio-Venous Difference … at 20 min”) was 25 mmHg. For the same molecule, in the experiment on dog heart in situ, the “Arterio-Venous Difference in Oxygen Partial Pressure at 30 min” value (from here on “Arterio-Venous Difference … at 30 min”) amounted to 26 mmHg, the “Arterio-Venous Difference in Oxygen Partial Pressure at 40 min” value (from here on “Arterio-Venous Difference … at 40 min”) is given as 26 mmHg, the “Arterio-Venous Difference in Oxygen Partial Pressure at 50 min” value (from here on “Arterio-Venous Difference … at 50 min”) amounted to 26 mmHg and the “Arterio-Venous Difference in Oxygen Partial Pressure at 60 min” value (from here on “Arterio-Venous Difference … at 60 min”) is given as 24 mmHg. The “antianginal activity (conclusion in words)” value (from here on “antianginal activity”) in the experiment on dog heart in situ is “antianginal activity is seen”.

In the case of `CC(=O)Nc1ccc(NC2CCN3CCc4c(n(Cc5ccccc5)c5ccccc45)C3C2)cc1.Cl.Cl` (stereo not drawn) [TR3635, 2-(4-acetamidoanilino)-12-benzyl-1,2,3,4,6,7,12,12b-octahydroindolo-[2,3-a]quinolizine dihydrochloride], the “Antiarrhythmic activity, ED50 symbol (failed screening dose)” value in experiment [1] was “* (Did not protect 3 of 5 mice and thus was not tested further.)”. For the same molecule, in the experiment with Systolic Blood Pressure, the “Change … at 1 hr” value was -23 mmHg, the “Change … at 2 hr” value is on record as -23 mmHg, the “Change … at 4 hr” value is -27 mmHg and the “Change … at 6 hr” value is reported as -16 mmHg. Moreover, in the experiment on Systolic Blood Pressure, the “Change … at 8 hr” value is given as -10 mmHg. For the same molecule, in the experiment with dog heart in situ, the “Arterio-Venous Difference … at 1 min” value stood at 24 mmHg, the “Arterio-Venous Difference … at 5 min” value amounted to 24 mmHg, the “Arterio-Venous Difference … at 10 min” value is on record as 24 mmHg and the “Arterio-Venous Difference … at 20 min” value worked out at 23 mmHg. Moreover, in the experiment on dog heart in situ, the “Arterio-Venous Difference … at 30 min” value came out at 24 mmHg, the “Arterio-Venous Difference … at 40 min” value is listed as 26 mmHg, the “Arterio-Venous Difference … at 50 min” value is on record as 25 mmHg and the “Arterio-Venous Difference … at 60 min” value is listed as 26 mmHg.

Turning to `c1ccc(Cn2c3c(c4ccccc42)CCN2CCC(Nc4ccccc4)CC32)cc1` (stereo not drawn) [TR2981, 2-anilino-12-benzyl-1,2,3,4,6,7,12,12b-octahydroindolo[2,3-a]quinolizine dihydrochloride], in experiment [1], the ED50 was determined as 31 mg/kg and the “mice protected of 5” value was “at least 3 of 5 mice”. In the experiment on Systolic Blood Pressure, the “Change … at 1 hr” value was -2 mmHg, the “Change … at 2 hr” value is given as “+5 mmHg”, the “Change … at 4 hr” value is listed as -5 mmHg and the “Change … at 6 hr” value was “+7 mmHg”. In the experiment with Systolic Blood Pressure, the “Change … at 8 hr” value is “+16 mmHg”. In addition, in the experiment on dog heart in situ, the “Arterio-Venous Difference … at 1 min” value was 17 mmHg, the “Arterio-Venous Difference … at 5 min” value was found to be 20 mmHg, the “Arterio-Venous Difference … at 10 min” value stood at 21 mmHg and the “Arterio-Venous Difference … at 20 min” value is on record as 22 mmHg. In the experiment on dog heart in situ, the “Arterio-Venous Difference … at 30 min” value is 23 mmHg, the “Arterio-Venous Difference … at 40 min” value came out at 24 mmHg, the “Arterio-Venous Difference … at 50 min” value was found to be 24 mmHg and the “Arterio-Venous Difference … at 60 min” value was 24 mmHg. In addition, the “antianginal activity” value in the experiment on dog heart in situ is “antianginal activity is seen”.

In the case of `COc1ccc(NC2CCN3CCc4c(n(Cc5ccccc5)c5ccccc45)C3C2)cc1.Cl.Cl` (stereo not drawn) [TR3006, 12-benzyl-2-(4-methoxyanilino)-1,2,3,4,6,7,12,12b-octahydroindolo[2,3-a]quinolizine dihydrochloride], in experiment [1], the “Antiarrhythmic activity, ED50 symbol (failed screening dose)” value is “* (Did not protect 3 of 5 mice and thus was not tested further.)”. Moreover, in the experiment on Systolic Blood Pressure, the “Change … at 1 hr” value is recorded as -28 mmHg, the “Change … at 2 hr” value is -20 mmHg, the “Change … at 4 hr” value is -18 mmHg and the “Change … at 6 hr” value was -12 mmHg. For the same molecule, the “Change … at 8 hr” value with Systolic Blood Pressure is -14 mmHg. Besides, in the experiment with dog heart in situ, the “Arterio-Venous Difference … at 1 min” value is 30 mmHg, the “Arterio-Venous Difference … at 5 min” value is 44 mmHg, the “Arterio-Venous Difference … at 10 min” value was found to be 45 mmHg and the “Arterio-Venous Difference … at 20 min” value came to 42 mmHg. For the same molecule, in the experiment with dog heart in situ, the “Arterio-Venous Difference … at 30 min” value was found to be 37 mmHg, the “Arterio-Venous Difference … at 40 min” value stood at 38 mmHg, the “Arterio-Venous Difference … at 50 min” value amounted to 36 mmHg and the “Arterio-Venous Difference … at 60 min” value came to 36 mmHg. Moreover, the “antianginal activity” value with dog heart in situ was “antianginal activity is seen”.

`Cl.Cl.NC1CCN2CCc3c(n(Cc4ccccc4)c4ccccc34)C2C1.O` (stereo not drawn) [TR3698, 2-amino-12-benzyl-1,2,3,4,6,7,12,12b-octahydroindolo [2,3-a]-quinolizine dihydrochloride monohydrate]: in experiment [1], the 50% effective dose (ED50) was 42 mg/kg and the “mice protected of 5” value is given as “at least 3 of 5 mice”. In the experiment with Systolic Blood Pressure, the “Change … at 1 hr” value is recorded as -4 mmHg, the “Change … at 2 hr” value is given as -11 mmHg, the “Change … at 4 hr” value is -3 mmHg and the “Change … at 6 hr” value is recorded as “+14 mmHg”. In addition, the “Change … at 8 hr” value with Systolic Blood Pressure is “+3 mmHg”. Also, in the experiment on dog heart in situ, the “Arterio-Venous Difference … at 1 min” value is 27 mmHg, the “Arterio-Venous Difference … at 5 min” value came to 27 mmHg, the “Arterio-Venous Difference … at 10 min” value was determined as 27 mmHg and the “Arterio-Venous Difference … at 20 min” value was 28 mmHg. Moreover, in the experiment on dog heart in situ, the “Arterio-Venous Difference … at 30 min” value stood at 28 mmHg, the “Arterio-Venous Difference … at 40 min” value was found to be 29 mmHg, the “Arterio-Venous Difference … at 50 min” value is listed as 28 mmHg and the “Arterio-Venous Difference … at 60 min” value was found to be 27 mmHg.

In the case of `O=[N+]([O-])OCC(CO[N+](=O)[O-])O[N+](=O)[O-]` [Nitroglycerin, nitroglycerin, reference compound], in the experiment with dog heart in situ, the “Arterio-Venous Difference … at 1 min” value worked out at 13 mmHg, the “Arterio-Venous Difference … at 5 min” value came out at 21 mmHg, the “Arterio-Venous Difference … at 10 min” value is recorded as 20 mmHg and the “Arterio-Venous Difference … at 20 min” value worked out at 20 mmHg. In addition, in the experiment on dog heart in situ, the “Arterio-Venous Difference … at 30 min” value is listed as 21 mmHg, the “Arterio-Venous Difference … at 40 min” value is listed as 21 mmHg, the “Arterio-Venous Difference … at 50 min” value was determined as 18 mmHg and the “Arterio-Venous Difference … at 60 min” value was found to be 20 mmHg.
